Reference: ChEMBL document CHEMBL5385876, “Discovery of unglycosylated indolocarbazoles as ROCK2 isoform-selective inhibitors for the treatment of breast cancer metastasis” (Eur J Med Chem, 2023)
Counter-ions that a name gives are not always drawn.

What was measured:
[1] = molecular target: Rho-associated protein kinase 2 (Homo sapiens, UniProt O75116); assay: Inhibition of N-terminal His10-StrepII tagged human ROCK2 catalytic domain (1 to 553 residues) expressed in Sf9 insect cells by HTRF assay
Chain of Rho-associated protein kinase 2 (O75116 whole entry, the tested form may be a part): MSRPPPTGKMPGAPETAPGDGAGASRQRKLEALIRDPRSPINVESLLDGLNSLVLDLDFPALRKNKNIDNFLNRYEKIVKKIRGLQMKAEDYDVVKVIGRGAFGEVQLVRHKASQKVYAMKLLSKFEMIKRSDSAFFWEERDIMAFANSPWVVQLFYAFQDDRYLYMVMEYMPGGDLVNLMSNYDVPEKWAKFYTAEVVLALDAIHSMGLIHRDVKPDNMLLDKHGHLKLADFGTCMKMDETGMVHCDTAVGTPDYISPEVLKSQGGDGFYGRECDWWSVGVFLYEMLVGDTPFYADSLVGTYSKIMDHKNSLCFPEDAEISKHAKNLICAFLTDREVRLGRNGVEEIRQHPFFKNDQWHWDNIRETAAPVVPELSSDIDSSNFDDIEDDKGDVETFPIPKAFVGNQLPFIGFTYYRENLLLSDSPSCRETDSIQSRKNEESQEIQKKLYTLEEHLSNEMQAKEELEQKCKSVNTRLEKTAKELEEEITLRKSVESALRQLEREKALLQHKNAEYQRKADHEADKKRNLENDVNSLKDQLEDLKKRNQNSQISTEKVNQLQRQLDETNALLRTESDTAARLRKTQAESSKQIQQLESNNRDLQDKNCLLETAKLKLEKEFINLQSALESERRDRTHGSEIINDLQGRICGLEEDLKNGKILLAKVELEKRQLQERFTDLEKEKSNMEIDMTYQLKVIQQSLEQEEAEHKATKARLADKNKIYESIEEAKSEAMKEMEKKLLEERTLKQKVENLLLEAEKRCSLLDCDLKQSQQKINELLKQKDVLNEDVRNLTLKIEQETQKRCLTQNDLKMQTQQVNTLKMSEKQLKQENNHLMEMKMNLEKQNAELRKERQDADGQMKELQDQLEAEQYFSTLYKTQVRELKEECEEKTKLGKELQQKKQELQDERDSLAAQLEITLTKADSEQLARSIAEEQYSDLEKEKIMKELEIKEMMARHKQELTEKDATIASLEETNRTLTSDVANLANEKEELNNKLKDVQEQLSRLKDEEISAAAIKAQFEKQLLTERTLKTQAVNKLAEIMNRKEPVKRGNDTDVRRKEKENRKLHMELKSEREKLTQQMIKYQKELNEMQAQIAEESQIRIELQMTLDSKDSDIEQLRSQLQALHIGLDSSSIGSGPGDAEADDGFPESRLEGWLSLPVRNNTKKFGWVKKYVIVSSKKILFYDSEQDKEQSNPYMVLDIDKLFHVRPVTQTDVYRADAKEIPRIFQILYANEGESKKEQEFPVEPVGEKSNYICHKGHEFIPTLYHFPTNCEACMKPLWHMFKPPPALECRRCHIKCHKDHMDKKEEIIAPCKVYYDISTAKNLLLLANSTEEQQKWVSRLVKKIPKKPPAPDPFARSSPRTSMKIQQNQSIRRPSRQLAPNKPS

[2] = Toxicity in BALB/c nude mouse xenografted with human MDA-MB-231 cells harboring Luc-mcherry assessed as reduction in body weight at 15 mg/kg, iv administered once a day for 45 days; type: organism-based; conditions: in vivo, 1080 h, time 45 day
MDA-MB-231 = assay: Antiproliferative activity against human MDA-MB-231 cells assessed as suppression of cell growth incubated for 72 hrs by SRB assay; type: functional, cell-based; conditions: MDA-MB-231, 72 h
SK-OV-3 = assay: Antiproliferative activity against human SK-OV-3 cells assessed as suppression of cell growth incubated for 72 hrs by SRB assay; type: functional, cell-based; conditions: SK-OV-3, 72 h

IC50 [1] [nM]	Structure (SMILES)	further results
60	CC(=O)N[C@H]1C[C@H]2O[C@@](C)([C@@H]1O)n1c3ccccc3c3c4c(c5c6ccccc6n2c5c31)C(=O)NC4	
670	O=C1NC(=O)c2c1c1c3ccccc3[nH]c1c1[nH]c3ccc(O)cc3c21	
> 500	CO[C@@H]1[C@H](O)[C@H](O)[C@H](C)O[C@H]1n1c2ccc(O)cc2c2c3c(c4c5ccccc5[nH]c4c21)CNC3=O	
> 500	CO[C@H]1NC(=O)c2c1c1c3ccccc3[nH]c1c1c2c2ccccc2n1[C@@H]1O[C@@H](C)[C@H](O)[C@@H](O)[C@H]1O	
> 500	COc1cccc2c1[nH]c1c3[nH]c4ccccc4c3c3c(c21)C(=O)NC3=O	
690	CO[C@@H]1[C@@H](O)[C@@H](O)[C@H]2O[C@]1(C)n1c3ccccc3c3c4c(c5c6ccccc6n2c5c31)C(=O)NC4	
> 500	CO[C@@H]1[C@@H](O)[C@@H](O)[C@H]2O[C@]1(C)n1c3ccccc3c3c4c(c5c6ccccc6n2c5c31)C(=O)N[C@H]4O	
> 500	COc1ccc2[nH]c3c4[nH]c5ccc(OC)cc5c4c4c(c3c2c1)CNC4=O	
2070	CO[C@@H]1[C@H](N(C)C(C)=O)C[C@H]2O[C@]1(C)n1c3ccccc3c3c4c(c5c6ccccc6n2c5c31)C(=O)NC4=O	
260	O=C1NCc2c1c1c3cccc(O)c3[nH]c1c1[nH]c3ccccc3c21	
> 500	Cc1ccc2[nH]c3c4[nH]c5ccccc5c4c4c(c3c2c1)C(=O)NC4=O	
> 500	CC(C)(C)c1ccc2[nH]c3c4[nH]c5ccccc5c4c4c(c3c2c1)C(=O)NC4	
> 500	COc1ccc2[nH]c3c4[nH]c5ccccc5c4c4c(c3c2c1)CNC4=O	
2700	CC(=O)N[C@@H]1C[C@H](n2c3ccccc3c3c4c(c5c6ccccc6[nH]c5c32)CNC4=O)O[C@@H](C)[C@@H]1O	
23	O=C1NCc2c1c1c3ccc(O)cc3[nH]c1c1[nH]c3ccccc3c21	
> 500	CO[C@@H]1C(=O)C[C@H]2O[C@]1(C)n1c3ccccc3c3c4c(c5c6ccccc6n2c5c31)C(=O)NC4	
3	O=C1NCc2c1c1c3cc(O)ccc3[nH]c1c1[nH]c3ccc(O)cc3c21	
	C[C@@H](N)[C@H]1CC[C@H](C(=O)Nc2ccncc2)CC1 [Y-27632]	Activity [2]: Non-Toxic
> 500	CO[C@H]1C(=O)C[C@H]2O[C@]1(C)n1c3ccccc3c3c4c(c5c6ccccc6n2c5c31)C(=O)NC4	
> 500	O=C1NC(O)c2c1c1c3ccccc3[nH]c1c1[nH]c3ccccc3c21 (stereo unspecified)	
550	Cc1ccc2[nH]c3c4[nH]c5ccccc5c4c4c(c3c2c1)C(=O)NC4	
> 500	CC(C)(C)c1ccc2[nH]c3c4[nH]c5ccccc5c4c4c(c3c2c1)CNC4=O	
76	C[C@@H]1O[C@@H](n2c3ccc(O)cc3c3c4c(c5c6ccccc6[nH]c5c32)CNC4=O)[C@H](O)[C@H](O)[C@H]1O	
360	C[C@]12O[C@H](C[C@@H](N)[C@H]1O)n1c3ccccc3c3c4c(c5c6ccccc6n2c5c31)C(=O)NC4=O	
> 500	O=C1NCc2c1c1c3ccccc3[nH]c1c1[nH]c3c(O)cccc3c21	
140	CO[C@@H]1[C@H](N(C)C=O)C[C@H]2O[C@]1(C)n1c3ccccc3c3c4c(c5c6ccccc6n2c5c31)C(=O)NC4	
2720	CNC(=O)C[C@H]1O[C@@](C)(C(=O)OC)n2c3ccccc3c3c4c(c5c6ccccc6n1c5c32)C(=O)NC4	

IC50 [1] [nM]	Structure (SMILES)	further results
470	C[C@@H]1O[C@@H](n2c3ccccc3c3c4c(c5c6ccccc6[nH]c5c32)CNC4=O)[C@H](O)[C@H](O)[C@H]1O	
> 500	C[C@@H]1O[C@@H](n2c3ccccc3c3c4c(c5c6ccccc6[nH]c5c32)[C@H](O)NC4=O)[C@H](O)[C@H](O)[C@H]1O	
	COc1cccc2c1C(=O)c1c(O)c3c(c(O)c1C2=O)C[C@@](O)(C(=O)CO)C[C@@H]3O[C@H]1C[C@H](N)[C@H](O)[C@H](C)O1 [DOXORUBICIN HYDROCHLORIDE]	IC50 (MDA-MB-231): 1010 nM; IC50 (SK-OV-3): 480 nM
110	COc1ccc2[nH]c3c4[nH]c5ccc(O)cc5c4c4c(c3c2c1)C(=O)NC4=O	
> 500	COc1ccc2c(c1)c1c3c(c4c5ccccc5n(C)c4c1n2C)C(=O)N(C)C3=O	
8220	CC1NC(=O)c2c1c1c3ccccc3[nH]c1c1[nH]c3ccccc3c21 (stereo unspecified)	
2880	C[C@]12O[C@H](C[C@@H](O)[C@H]1O)n1c3ccccc3c3c4c(c5c6ccccc6n2c5c31)CNC4=O	
2240	CC(=O)N[C@@H]1C[C@H](n2c3ccccc3c3c4c(c5c6ccccc6[nH]c5c32)C(=O)NC4=O)O[C@@H](C)[C@@H]1O	
> 500	COC1=C(C)O[C@@H]2C[C@@]1(OC)n1c3ccccc3c3c4c(c5c6ccccc6n2c5c31)C(=O)NC4	
210	CC(=O)N[C@H]1C[C@H](n2c3ccccc3c3c4c(c5c6ccccc6[nH]c5c32)CNC4=O)O[C@@H](C)[C@@H]1O	
140	C[C@@H]1O[C@@H](n2c3ccccc3c3c4c(c5c6ccccc6[nH]c5c32)CNC4=O)C[C@@H](N)[C@H]1OC(O)C1CO1 (stereo partly specified)	
2120	COc1cc(/C=C(/C(N)=O)n2c3ccccc3c3c4c(c5c6ccccc6[nH]c5c32)CNC4=O)ccc1O	
510	CN1Cc2c(c3c4ccccc4[nH]c3c3[nH]c4ccccc4c23)C1=O	
> 500	CC(C)(C)c1ccc2[nH]c3c4[nH]c5ccccc5c4c4c(c3c2c1)C(=O)NC4=O	
> 500	COc1ccc2[nH]c3c4[nH]c5ccccc5c4c4c(c3c2c1)C(=O)NC4	
210	C[C@@H]1O[C@@H]2C[C@](O)([C@H]1O)n1c3ccccc3c3c4c(c5c6cc(O)ccc6n2c5c31)C(=O)NC4	
7	O=C1NC(=O)c2c1c1c3cc(O)ccc3[nH]c1c1[nH]c3ccc(O)cc3c21	
8000	CO[C@@H]1[C@H](O)C[C@H]2O[C@]1(C)n1c3ccccc3c3c4c(c5c6ccccc6n2c5c31)C(=O)NC4	
> 500	CO[C@@H]1[C@H](NC=O)C[C@H]2O[C@]1(C)n1c3ccccc3c3c4c(c5c6ccccc6n2c5c31)C(=O)NC4	
200	O=C1NCc2c1c1c3ccccc3[nH]c1c1[nH]c3cc(O)ccc3c21	
> 500	CO[C@@H]1[C@@H](O)[C@@H](O)[C@H]2O[C@]1(C)n1c3ccccc3c3c4c(c5c6ccccc6n2c5c31)C(=O)NC4=O	
120	C[C@H]1O[C@@H]2C[C@](O)([C@H]1O)n1c3ccccc3c3c4c(c5c6cc(O)ccc6n2c5c31)C(=O)NC4	
> 500	CO[C@@H]1C(C)(O)O[C@@H]2C[C@@]1(OC)n1c3ccccc3c3c4c(c5c6ccccc6n2c5c31)C(=O)NC4 (stereo partly specified)	
> 500	CO[C@@H]1[C@@H](O)[C@@H](O)[C@H]2O[C@]1(C)n1c3ccccc3c3c4c(c5c6ccccc6n2c5c31)C(=O)N[C@H]4OC	
> 500	CO[C@@H]1[C@@H](O)[C@@H](O)[C@H]2O[C@]1(C)n1c3ccccc3c3c4c(c5c6ccccc6n2c5c31)C(=O)N[C@@H]4O	
360	CO[C@@H]1[C@H](N(C)C(N)=O)C[C@H]2O[C@]1(C)n1c3ccccc3c3c4c(c5c6ccccc6n2c5c31)C(=O)NC4	

Structure (SMILES)	IC50 [1] [nM]	further results
C[C@]12O[C@H](C[C@]1(O)C(=O)O)n1c3ccccc3c3c4c(c5c6ccccc6n2c5c31)CNC4=O	> 500	
CO[C@@H]1[C@H](NC(=O)C(=O)c2c[nH]c3ccccc23)C[C@H]2O[C@]1(C)n1c3ccccc3c3c4c(c5c6ccccc6n2c5c31)C(=O)NC4	4780	
CN[C@@H]1C[C@H]2O[C@@](C)([C@@H]1OC)n1c3ccccc3c3c4c(c5c6ccccc6n2c5c31)C(=O)NC4=O (stereo in doubt; 15)	20	
COC(=O)[C@@]1(OC)C[C@H]2O[C@]1(C)n1c3ccccc3c3c4c(c5c6ccccc6n2c5c31)C(=O)NC4	330	
O=C1NCc2c1c1c3ccccc3[nH]c1c1[nH]c3ccccc3c21 [STAUROSPORINONE]	> 500	
O=C1NC(=O)c2c1c1c3ccccc3[nH]c1c1[nH]c3ccccc3c21 [STAUROSPORINE AGLYCON]	> 500	
CN[C@]1(C(=O)OC)C[C@H]2O[C@]1(C)n1c3ccccc3c3c4c(c5c6ccccc6n2c5c31)C(=O)NC4	> 500	
